Patent US9474754B2, “Pharmaceutical combinations comprising a B-RAF inhibitor, and EGFR inhibitor and optionally a PI3K-α inhibitor” (NOVARTIS AG, priority 2012, dated 2016)

What was measured:
COLO 205 = assay: 72 hr cell titer Glo proliferation assay, COLO 205; type: cell-based; settings: Homo sapiens, single agent, COLO 205, BRAFV600E
Protocol: (§1) All cell lines express the BRAFV600E protein, except MDST8 which expresses the BRAFV600K variant. Cells harboring known or putative activating mutations in the PI3Kα gene are marked with a (*) and cells with PTEN loss marked with a (#). Cell proliferation was measured in 72 hr cell titer Glo™ assays and all results shown are the result of at least triplicate measurements. […] Interactions were deemed synergistic when scores ≧2.0 where observed.

LS411N = assay: 72 hr cell titer Glo proliferation assay, LS411N; type: cell-based; settings: Homo sapiens, LS-411N, single agent, BRAFV600E
Protocol: as §1

CL-34 = assay: 72 hr cell titer Glo proliferation assay, CL-34; type: cell-based; settings: single agent, CL-34, BRAFV600E
Protocol: as §1

MDST8 = assay: 72 hr cell titer Glo proliferation assay, MDST8; type: cell-based; settings: single agent, MDST8, BRAFV600K
Protocol: as §1

HT-29 = assay: 72 hr cell titer Glo proliferation assay, HT-29; type: cell-based; settings: Homo sapiens, single agent, HT-29 (PI3Kα mutation), BRAFV600E
Protocol: as §1

SNU-C5 = assay: 72 hr cell titer Glo proliferation assay, SNU-C5; type: cell-based; settings: single agent, SNU-C5 (PI3Kα mutation), BRAFV600E
Protocol: as §1

OUMS-23 = assay: 72 hr cell titer Glo proliferation assay, OUMS-23; type: cell-based; settings: single agent, OUMS-23 (PTEN loss), BRAFV600E
Protocol: as §1

[1] = tested on: BRAF-mutant CRC-derived cell lines; assay: Proliferation of BRAF-mutant CRC-derived cell lines, panel summary; type: cell-based; settings: all cell lines tested
Protocol: as §1

[2] = tested on: HT-29 human colorectal adenocarcinoma xenograft; type: in vivo; settings: for T/C: D29, 100×ΔT/ΔC for ΔT>0; for T/C / Mean Volume Day 1 / Mean Volume Day 29 / Mean Volume Change (ΔT): Cpd A 20 mg/kg po bid x 28, Cpd B 25 mg/kg po qd x 28, cetuximab 20 mg/kg ip biwk x 4, paclitaxel 30 mg/kg iv qod x 5; for Mean Volume Day 1: Day 1, start of dosing; for Mean Volume Change (ΔT): between D1 and D29; for Mean BW Nadir, day of nadir / Deaths NTR / Deaths TR / Regressions CR / Regressions PR: doses as in table; for Deaths NTR / Deaths TR / Regressions CR / Regressions PR: n = 10 per group; for Statistical Significance vs G1: vs Group 1 (vehicles), tumor volume change D1-D29
Protocol: A fresh suspension was prepared every two weeks and stored at room temperature.
A fresh suspension was prepared weekly and stored at 4° C.
Dosing solutions were freshly prepared for one group at a time.
Each agent was administered at a single dose level, individually and in dual and triple combinations, that were initiated on Day 1 (D1) in female nude mice with established subcutaneous tumors. […] Efficacy was determined from mean tumor volume changes between D1 and D29. Prism summarizes test results as not significant (ns) at P>0.05, significant (symbolized by “*”) at 0.01<P≦0.05, very significant (“**”) at 0.001<P≦0.01, and extremely significant (“***”) at P≦0.001.
For the purpose of statistical analyses, ΔTV, the difference in tumor volume between D1 (the start of dosing) and the endpoint day, was determined for every animal. […] The […] values are negative represent net tumor reduction for a group. […] Response to Combination Therapies (Groups 5-8)

BCRP = molecular target: T1, BCRP (Homo sapiens, UniProt Q9UNQ0); assay: BCRP interaction; type: in vitro ADME
T1 sequence (Q9UNQ0 1-655): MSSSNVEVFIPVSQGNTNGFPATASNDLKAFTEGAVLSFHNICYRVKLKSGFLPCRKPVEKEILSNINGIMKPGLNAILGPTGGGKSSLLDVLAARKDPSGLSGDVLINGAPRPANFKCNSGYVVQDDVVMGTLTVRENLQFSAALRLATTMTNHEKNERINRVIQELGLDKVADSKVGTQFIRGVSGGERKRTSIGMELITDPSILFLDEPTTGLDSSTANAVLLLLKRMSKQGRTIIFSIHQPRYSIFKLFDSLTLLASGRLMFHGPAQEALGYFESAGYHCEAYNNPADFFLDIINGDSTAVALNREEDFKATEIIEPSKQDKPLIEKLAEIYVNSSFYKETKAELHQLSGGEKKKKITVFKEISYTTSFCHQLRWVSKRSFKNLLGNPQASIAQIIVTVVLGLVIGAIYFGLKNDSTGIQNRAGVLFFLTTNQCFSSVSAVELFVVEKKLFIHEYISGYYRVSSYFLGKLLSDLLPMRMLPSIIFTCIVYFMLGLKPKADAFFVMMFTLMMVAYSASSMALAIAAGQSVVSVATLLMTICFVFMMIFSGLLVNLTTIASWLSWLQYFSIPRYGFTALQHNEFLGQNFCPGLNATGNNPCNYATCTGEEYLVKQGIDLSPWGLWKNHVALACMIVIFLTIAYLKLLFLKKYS

CYP3A4 = CYP3A4 (Homo sapiens, UniProt P08684); assay: CYP3A4 interaction; type: in vitro ADME
Sequence of CYP3A4 (P08684 whole entry): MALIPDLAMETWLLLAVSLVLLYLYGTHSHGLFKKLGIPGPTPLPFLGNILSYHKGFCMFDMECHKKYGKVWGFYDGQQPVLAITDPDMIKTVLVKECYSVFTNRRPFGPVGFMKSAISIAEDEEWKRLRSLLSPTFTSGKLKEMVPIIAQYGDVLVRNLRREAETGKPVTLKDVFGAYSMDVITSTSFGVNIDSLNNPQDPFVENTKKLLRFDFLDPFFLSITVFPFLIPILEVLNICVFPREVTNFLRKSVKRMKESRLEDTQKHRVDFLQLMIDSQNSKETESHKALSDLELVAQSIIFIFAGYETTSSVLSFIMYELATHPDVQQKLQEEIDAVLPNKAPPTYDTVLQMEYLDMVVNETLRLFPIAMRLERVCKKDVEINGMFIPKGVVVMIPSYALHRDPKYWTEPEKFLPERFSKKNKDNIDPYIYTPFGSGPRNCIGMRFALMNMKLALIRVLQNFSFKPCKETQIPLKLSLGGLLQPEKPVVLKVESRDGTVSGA

SW1417 = assay: 72 hr cell titer Glo proliferation assay, SW1417; type: cell-based; settings: Homo sapiens, single agent, SW1417, BRAFV600E
Protocol: as §1

RKO = assay: 72 hr cell titer Glo proliferation assay, RKO; type: cell-based; settings: Homo sapiens, single agent, RKO (PI3Kα mutation), BRAFV600E
Protocol: as §1

Rat ADME bioavailability = type: in vivo; settings: pre-clinical

Q: Which IC50 (COLO 205) does the source give for `COC(=O)N[C@@H](C)CNc1nccc(-c2cn(C(C)C)nc2-c2cc(Cl)cc(NS(C)(=O)=O)c2F)n1` [Compound A] here?
A: 5 nM

Q: What about the IC50 (LS411N) of the same molecule?
A: 18 nM

Q: What about the IC50 (CL-34) of the same molecule?
A: 30 nM

Q: What about the IC50 (MDST8) of the same molecule?
A: 319 nM

Q: What about the IC50 (HT-29) of the same molecule?
A: 49 nM

Q: What about the IC50 (SNU-C5) of the same molecule?
A: > 2700 nM

Q: What about the IC50 (OUMS-23) of the same molecule?
A: > 2700 nM

Q: And the “single agent activity on proliferation” value [1]?
A: significant single agent activity

Q: And the T/C [2]?
A: 95%

Q: What about the “Mean Volume Day 1” value [2] of the same molecule?
A: 122 mm^3

Q: What about the “Mean Volume Day 29” value [2] of the same molecule?
A: 1016 mm^3

Q: What about the “Mean Volume Change (ΔT)” value [2] of the same molecule?
A: 894 mm^3

Q: What about the “Mean BW Nadir, day of nadir” value [2] of the same molecule?
A: Day 8

Q: And the “Deaths NTR” value [2]?
A: 0

Q: And the “Deaths TR” value [2]?
A: 0

Q: What about the “Regressions CR” value [2] of the same molecule?
A: 0

Q: What about the “Regressions PR” value [2] of the same molecule?
A: 0

Q: And the “Statistical Significance vs G1” value [2]?
A: ns (not significant (ns) at P>0.05)

Q: What about the BCRP inhibition (BCRP) of the same molecule?
A: inhibitor of BCRP

Q: And the metabolism (CYP3A4)?
A: mainly metabolized by CYP3A4

Q: What does the source list for `Cc1nc(NC(=O)N2CCC[C@H]2C(N)=O)sc1-c1ccnc(C(C)(C)C(F)(F)F)c1` [Compound B, (S)-Pyrrolidine-1,2-dicarboxylic acid 2-amide 1-({4-methyl-5-[2-(2,2,2-trifluoro-1,1-dimethyl-ethyl)-pyridin-4-yl]-thiazol-2-yl}-amide)]?
A: IC50 (SW1417): > 2700 nM; IC50 (COLO 205): > 2700 nM; IC50 (LS411N): > 2700 nM; IC50 (CL-34): > 2700 nM; IC50 (HT-29): > 2700 nM; IC50 (RKO): > 2700 nM; IC50 (SNU-C5): > 2700 nM; IC50 (OUMS-23): > 2700 nM; T/C [2]: 57%; Mean Volume Day 1 [2]: 122 mm^3; Mean Volume Day 29 [2]: 660 mm^3; Mean Volume Change (ΔT) [2]: 538 mm^3; Mean BW Nadir, day of nadir [2]: Day 8; Deaths NTR [2]: 0; Deaths TR [2]: 0; Regressions CR [2]: 0; Regressions PR [2]: 0; Statistical Significance vs G1 [2]: ns (not significant (ns) at P>0.05); bioavailability (Rat ADME bioavailability): 58%; BCRP substrate (BCRP): substrate of BCRP; CYP3A4 inhibition (CYP3A4): time dependent inhibitor of CYP3A4

Q: Which IC50 (SW1417) does the source give for `C#Cc1cccc(Nc2ncnc3cc(OCCOC)c(OCCOC)cc23)c1` [Erlotinib, erlotinib, reference compound] here?
A: > 2700 nM

Q: And the IC50 (COLO 205)?
A: > 2700 nM

Q: And the IC50 (LS411N)?
A: > 2700 nM

Q: What about the IC50 (CL-34) of the same molecule?
A: > 2700 nM

Q: And the IC50 (MDST8)?
A: > 2700 nM

Q: What about the IC50 (HT-29) of the same molecule?
A: > 2700 nM

Q: And the IC50 (RKO)?
A: > 2700 nM

Q: What about the IC50 (SNU-C5) of the same molecule?
A: > 2700 nM

Q: And the IC50 (OUMS-23)?
A: > 2700 nM

Q: Which T/C [2] does the source give for `CC(=O)O[C@H]1C(=O)[C@@]2(C)[C@H]([C@H](OC(=O)c3ccccc3)[C@]3(O)C[C@H](OC(=O)[C@H](O)[C@@H](NC(=O)c4ccccc4)c4ccccc4)C(C)=C1C3(C)C)[C@]1(OC(C)=O)CO[C@@H]1C[C@@H]2O` [Paclitaxel, paclitaxel, reference compound] here?
A: 11%

Q: What about the “Mean Volume Day 1” value [2] of the same molecule?
A: 122 mm^3

Q: And the “Mean Volume Day 29” value [2]?
A: 229 mm^3

Q: What about the “Mean Volume Change (ΔT)” value [2] of the same molecule?
A: 107 mm^3

Q: What about the “Mean BW Nadir, day of nadir” value [2] of the same molecule?
A: Day 11

Q: And the “Deaths NTR” value [2]?
A: 0

Q: What about the “Deaths TR” value [2] of the same molecule?
A: 0

Q: And the “Regressions CR” value [2]?
A: 0

Q: And the “Regressions PR” value [2]?
A: 0

Q: And the “Statistical Significance vs G1” value [2]?
A: ** (very significant (“**”) at 0.001<P≦0.01)
